From patent publication US20240415123A1, “METHODS AND COMPOSITIONS FOR ICAFOLIN HERBICIDE TOLERANCE” (Monsanto Technology LLC, priority 2023, published 2024)

What was measured:
Assay type in all cases: in vivo
[1] = test system: transgenic soybean plants expressing CYP14; assay: Icafolin herbicide injury rating, greenhouse spray, CYP14 soybean
Excerpt: (§1) The codon-optimized polynucleotide sequences were placed into plant transformation cassettes with each CYP coding sequence operably-linked to a constitutive expression element comprising the promoter, leader, and intron sequence of Arabidopsis thaliana Ubiquitin 3 (SEQ ID NO:14) and a Medicago truncatula photosystem II terminator (SEQ ID NO:15). Four plant transformation vectors were created, each comprising one of the CYP gene expression cassettes and an aadA selectable marker expression cassette, conferring resistance to the antibiotics spectinomycin and streptomycin. Soybean cultivar AG3555 seed-derived embryo explants were transformed with the vectors by Agrobacterium-mediated transformation using known methods in the art, and transformed plantlets were selected based on growth in the presence of spectinomycin. Plantlets comprising single copy events were grown in the greenhouse to produce R1 seeds. R1 plants were subsequently selected for homozygous CYP-positive plants, either by molecular analysis of young leaf tissue or by seed chipping prior to planting. These selected plants were then screened for tolerance to icafolin herbicide.
(§2) Herbicide tolerance screens were performed by selecting R1 plants at roughly the V2-V3 developmental stage and applying icafolin herbicide with a track sprayer under standard greenhouse conditions. Two independent transgenic events per transgene were screened. The herbicide was formulated with 1% v/v methylated seed oil (MSO) and 2.5% v/v ammonium sulfate (AMS) and sprayed with a XR nozzle at 15 gallons per […] (GPA) to mimic field conditions. The icafolin used in this Example and in the experiments described in Examples 2-4 was a mixture of the methyl ester forms of the 2R, 4R and 2S, 4S isomers. The icafolin formulation was sprayed at two rates: 5 g active ingredient (ai)/hectare (ha) and 25 g ai/ha. The herbicide treated soybean plants were returned to the greenhouse following spray application and allowed to grow under standard conditions. Plants were rated for herbicide injury at approximately 14 and 21 days after treatment (DAT). Untreated transgenic plants and control (wild-type) plants were used for phenotypic comparison. The herbicide injury rating accounts for plant malformation, stunting, chlorosis, necrosis, and plant death relative to the untreated control plants. An injury rating of approximately 90% or above indicates nearly complete plant death. An injury rating of less than 30% indicates partial tolerance, and an injury rating of less than 20% indicates good tolerance. Injury ratings were collected and analyzed, and photographs of representative plants were taken.

[2] = test system: transgenic soybean plants expressing CYP15; assay: Icafolin herbicide injury rating, greenhouse spray, CYP15 soybean
Excerpt: as §1, §2

[3] = test system: transgenic soybean plants expressing CYP28; assay: Icafolin herbicide injury rating, greenhouse spray, CYP28 soybean; conditions: Table 8
Excerpt: The codon-optimized genes were placed into plant transformation cassettes with each CYP coding sequence operably linked to a constitutive expression element comprising the promoter, leader, and intron of Arabidopsis thaliana Ubiquitin 3 (SEQ ID NO:14) and a Medicago truncatula photosystem II terminator (SEQ ID NO:15). Two plant transformation vectors were created, each comprising one of the CYP gene cassettes and an aadA selectable marker expression cassette, conferring resistance to the antibiotics spectinomycin and streptomycin. Soybean cultivar AG3555 seed-derived embryo explants were transformed with the vectors described above by Agrobacterium-mediated transformation using known methods in the art, and positive-transformed plantlets were selected based on growth in the presence of spectinomycin. Plantlets comprising single copy events were grown in the greenhouse to produce R1 seeds. R1 plants were subsequently selected for the homozygous CYP positive plants, either by molecular analysis of young leaf tissue or by seed chipping prior to planting. These selected plants were then screened for tolerance to the icafolin herbicide.
Herbicide tolerance screening was performed by selecting R1 plants at roughly the V2-V3 developmental stage and applying the icafolin herbicide in a track sprayer under standard greenhouse conditions. Two independent transgenic events per transgene were selected for screening. The herbicide was formulated with 1% v/v methylated seed oil (MSO) and 2.5% v/v ammonium sulfate (AMS) and sprayed with a XR nozzle at 15 gallons per […] (GPA) to mimic field conditions. The icafolin formulation was sprayed at two rates: 5 g active ingredient (ai)/hectare (ha) and 25 g ai/ha. The treated soybean plants were returned to the greenhouse following spray application and allowed to grow under standard conditions. The plants were rated for herbicide injury at approximately 14 and 21 days after treatment (DAT). Untreated transgenic plants and control (wild-type) plants were used for phenotypic comparison. The herbicide injury rating accounts for plant malformation, stunting, chlorosis, necrosis, and plant death relative to the untreated control plants. An injury rating of approximately 90% or above indicates nearly complete plant death. An injury rating of less than 30% indicates partial tolerance and an injury rating of less than 20% indicates good tolerance. Injury ratings were collected and analyzed, and photographs of representative plants were taken.

[4] = CYP14 Event 267, 5 g ai/ha icafolin, Experiment 2
[5] = CYP14 Event 267, 5 g ai/ha icafolin, Experiment 1
[6] = CYP14 Event 267, 25 g ai/ha icafolin, Experiment 2
[7] = CYP14 Event 267, 25 g ai/ha icafolin, Experiment 1
[8] = CYP14 Event 280, 5 g ai/ha icafolin, Experiment 2
[9] = CYP14 Event 280, 25 g ai/ha icafolin, Experiment 2
[10] = CYP14 Event 309, 5 g ai/ha icafolin, Experiment 2
[11] = CYP14 Event 309, 5 g ai/ha icafolin, Experiment 1
[12] = CYP14 Event 309, 25 g ai/ha icafolin, Experiment 2
[13] = CYP14 Event 309, 25 g ai/ha icafolin, Experiment 1
[14] = CYP14 Event 324, 5 g ai/ha icafolin, Experiment 2
[15] = CYP14 Event 324, 25 g ai/ha icafolin, Experiment 2
[16] = CYP15 Event 618, 5 g ai/ha icafolin, Experiment 2
[17] = CYP15 Event 618, 25 g ai/ha icafolin, Experiment 2
[18] = CYP15 Event 670, 5 g ai/ha icafolin, Experiment 2
[19] = CYP15 Event 670, 25 g ai/ha icafolin, Experiment 2
[20] = CYP15 Event 784, 5 g ai/ha icafolin, Experiment 2
[21] = CYP15 Event 784, 5 g ai/ha icafolin, Experiment 1
[22] = CYP15 Event 784, 25 g ai/ha icafolin, Experiment 2
[23] = CYP15 Event 784, 25 g ai/ha icafolin, Experiment 1
[24] = CYP15 Event 794, 5 g ai/ha icafolin, Experiment 2
[25] = CYP15 Event 794, 5 g ai/ha icafolin, Experiment 1
[26] = CYP15 Event 794, 25 g ai/ha icafolin, Experiment 2
[27] = CYP15 Event 794, 25 g ai/ha icafolin, Experiment 1
[28] = CYP28 Event 44, 5 g ai/ha icafolin
[29] = CYP28 Event 44, 25 g ai/ha icafolin
[30] = CYP28 Event 90, 5 g ai/ha icafolin
[31] = CYP28 Event 90, 25 g ai/ha icafolin

With C=C[C@]1(C(=O)N[C@H]2CO[C@@H](C(=O)OC)C2)CC(c2cc(F)cc(F)c2)=NO1 (relative stereo) [icafolin, methyl(2R*,4R*)-4-[[(5S)-3-(3,5-difluorophenyl)-5-vinyl-4H-isoxazole-5-carbonyl]amino]tetrahydrofuran-2-carboxylate] the “Percent Injury 14 DAT” value [1, 4] was 32%, the “Percent Injury 15 DAT” value [1, 5] was 14% and the “Percent injury 21 DAT” value [1, 5] was 12%. The “Percent injury 21 DAT” value [1, 4] was 20%, the “Percent Injury 14 DAT” value [1, 6] was 79% and the “Percent Injury 15 DAT” value [1, 7] was 39%. For the same compound, the “Percent injury 21 DAT” value [1, 7] was 47%, the “Percent injury 21 DAT” value [1, 6] was 57% and the “Percent Injury 14 DAT” value [1, 8] was 19%. For the same compound, the “Percent injury 21 DAT” value [1, 8] was 12%, the “Percent Injury 14 DAT” value [1, 9] was 64% and the “Percent injury 21 DAT” value [1, 9] was 35%. For the same compound, the “Percent Injury 14 DAT” value [1, 10] was 37%, the “Percent Injury 15 DAT” value [1, 11] was 33% and the “Percent injury 21 DAT” value [1, 11] was 36%. For the same compound, the “Percent injury 21 DAT” value [1, 10] was 22%, the “Percent Injury 14 DAT” value [1, 12] was 90% and the “Percent Injury 15 DAT” value [1, 13] was 71%. The “Percent injury 21 DAT” value [1, 13] was 81%, the “Percent injury 21 DAT” value [1, 12] was 89% and the “Percent Injury 14 DAT” value [1, 14] was 48%. The “Percent injury 21 DAT” value [1, 14] was 30%, the “Percent Injury 14 DAT” value [1, 15] was 75% and the “Percent injury 21 DAT” value [1, 15] was 66%. The Tolerance to icafolin ([1]; in vivo) was “unexpected tolerance”, the “injury” value ([1]; in vivo) was “less than 30%” and the “Percent Injury 14 DAT” value [2, 16] was 23%. The “Percent injury 21 DAT” value [2, 16] was 12%, the “Percent Injury 14 DAT” value [2, 17] was 60% and the “Percent injury 21 DAT” value [2, 17] was 32%. For the same compound, the “Percent Injury 14 DAT” value [2, 18] was 10%, the “Percent injury 21 DAT” value [2, 18] was 15% and the “Percent Injury 14 DAT” value [2, 19] was 52%. The “Percent injury 21 DAT” value [2, 19] was 34%, the “Percent Injury 14 DAT” value [2, 20] was 8% and the “Percent Injury 15 DAT” value [2, 21] was 8%. The “Percent injury 21 DAT” value [2, 21] was 3%, the “Percent injury 21 DAT” value [2, 20] was 11% and the “Percent Injury 14 DAT” value [2, 22] was 78%. The “Percent Injury 15 DAT” value [2, 23] was 28%, the “Percent injury 21 DAT” value [2, 23] was 32% and the “Percent injury 21 DAT” value [2, 22] was 44%. For the same compound, the “Percent Injury 14 DAT” value [2, 24] was 12%, the “Percent Injury 15 DAT” value [2, 25] was 8% and the “Percent injury 21 DAT” value [2, 25] was 6%. For the same compound, the “Percent injury 21 DAT” value [2, 24] was 9%, the “Percent Injury 14 DAT” value [2, 26] was 78% and the “Percent Injury 15 DAT” value [2, 27] was 36%. The “Percent injury 21 DAT” value [2, 27] was 41%, the “Percent injury 21 DAT” value [2, 26] was 49% and the Tolerance to icafolin ([2]; in vivo) was “unexpected tolerance”. For the same compound, the “injury” value ([2]; in vivo) was “less than 30%”, the “Percent Injury 14 DAT” value [3, 28] was 15.6% and the “Percent injury 21 DAT” value [3, 28] was 13.3%. For the same compound, the “Percent Injury 14 DAT” value [3, 29] was 67.2%, the “Percent injury 21 DAT” value [3, 29] was 56.7% and the “Percent Injury 14 DAT” value [3, 30] was 28.0%. The “Percent injury 21 DAT” value [3, 30] was 13.0%, the “Percent Injury 14 DAT” value [3, 31] was 68.0% and the “Percent injury 21 DAT” value [3, 31] was 74.0%.
